Literature values, collected in patent US20070098786A1, “ENTERIC VALPROIC ACID” (Banner Pharmacaps, Inc., priority 2005, published 2007).

solubility in water: soluble in water
SMILES: CCCC(CCC)C(=O)O [Divalproex sodium]
